Reference: the supplement of paper PMC10307832

compound: Cn1cnc2c(F)c(Nc3ccc(Br)cc3Cl)c(C(=O)NOCCO)cc21 [Selumetinib] + CC(C)C[C@H](NC(=O)[C@H](Cc1ccccc1)NC(=O)c1cnccn1)B(O)O [Bortezomib] (partner 0.002 µM); experiment: relative viability (nuclei count vs DMSO), 5 days (fraction); higher = more cells survive; settings: first compound 0.06325 µM
Method in brief: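 Dosing by pin tool came one day after lung cancer cell lines were seeded in 1536-well plates, using either one drug or a fixed anchor-drug dose plus five library-drug doses (not always all listed) in √10 steps. After 5 days, nuclei were counted on 4× images. Relative viability is treated-well nuclei count divided by vehicle-well nuclei count, and values are medians of duplicate plates.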

In order of rising relative viability:
1. NCI-H1650  0.172
2. NCI-H1975  0.282
3. NCI-H441  0.345
4. NCI-H1437  0.378
5. NCI-H2087  0.542
6. NCI-H2009  0.591
7. HOP-62  0.779
8. EKVX  0.795
9. H3255  0.801
10. NCI-H2347  0.817
11. NCI-H661  0.847
12. SW 1573  0.86
13. NCI-H1651  0.861
14. NCI-H1915  0.877
15. NCI-H2405  0.928
16. CAL-12T  0.935
17. HCC-366  0.935
18. RERF-LC-KJ  1.01
19. LCLC-103H  1.06
20. NCI-H1355  1.17
21. SK-LU-1  1.28

same assay, conditions: first compound 0.2 µM

In order of rising relative viability:
1. NCI-H1650  0.215
2. NCI-H1975  0.262
3. NCI-H1437  0.316
4. NCI-H2087  0.456
5. HOP-62  0.496
6. NCI-H520  0.498
7. NCI-H2009  0.538
8. EKVX  0.543
9. NCI-H441  0.544
10. HCC-15  0.559
11. NCI-H2347  0.6
12. NCI-H838  0.679
13. BEN  0.686
14. NCI-H661  0.722
15. NCI-H1915  0.747
16. H3255  0.761
17. NCI-H3122  0.779
18. SW 1573  0.802
19. NCI-H596  0.835
20. CAL-12T  0.849
21. NCI-H460  0.852
22. NCI-H2405  0.858
23. HCC-366  0.864
24. NCI-H1993  0.873
25. NCI-H1651  0.873
26. NCI-H1355  0.884
27. SK-LU-1  0.918
28. RERF-LC-KJ  0.92
29. NCI-H2085  0.926
30. LCLC-103H  0.993
31. 201T  1.01
32. HCC-827  1.02
33. A-427  1.05
34. LU99A  1.18

same assay, conditions: first compound 0.6325 µM

In order of rising relative viability:
1. NCI-H1437  0.276
2. HCC-15  0.424
3. NCI-H460  0.458
4. HOP-62  0.475
5. NCI-H838  0.513
6. NCI-H520  0.575
7. NCI-H596  0.621
8. NCI-H2405  0.744
9. NCI-H3122  0.78
10. NCI-H1993  0.806
11. NCI-H1355  0.822
12. BEN  0.834
13. NCI-H2085  0.916
14. A-427  0.959
15. HCC-827  0.975
16. 201T  0.994
17. LU99A  1.37
